Source: PubChem BioAssay (NCI)
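Interpolation was linear, between the two tested concentrations surrounding the appropriate level; five concentrations were tested over 48 hours in 96-well plates. Here, GI50 denotes the concentration required for 50% inhibition of growth. Definition used: TGI = concentration required for complete inhibition of growth.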

Tests used:
Assay in all cases: NCI tumour cell line growth inhibition, 48 h; in the data active = GI50 below about 0.43 µM; inactive = the rest
EKVX NSCLC = system: EKVX NSCLC
MOLT-4 leukemia = system: MOLT-4 leukemia
RPMI-8226 leukemia = system: RPMI-8226 leukemia
SNB-75 CNS = system: SNB-75 CNS
HS 578T breast = system: HS 578T breast
ACHN renal = system: ACHN renal
CCRF-CEM leukemia = system: CCRF-CEM leukemia
T-47D breast = system: T-47D breast
HT29 colon = system: HT29 colon
COLO 205 colon = system: COLO 205 colon
TK-10 renal = system: TK-10 renal
MDA-MB-231 breast = system: MDA-MB-231 breast
NCI-H460 lung = system: NCI-H460 lung
A549 NSCLC = system: A549 NSCLC
K-562 leukemia = system: K-562 leukemia
UACC-257 melanoma = system: UACC-257 melanoma
HOP-92 NSCLC = system: HOP-92 NSCLC
UO-31 renal = system: UO-31 renal
MDA-MB-435 = system: MDA-MB-435
OVCAR-4 ovarian = system: OVCAR-4 ovarian
BT-549 breast = system: BT-549 breast
A498 renal = system: A498 renal
NCI/ADR-RES ovarian = system: NCI/ADR-RES ovarian
SF-268 CNS = system: SF-268 CNS
PC-3 prostate = system: PC-3 prostate
UACC-62 melanoma = system: UACC-62 melanoma
OVCAR-5 ovarian = system: OVCAR-5 ovarian
CAKI-1 renal = system: CAKI-1 renal
SF-295 CNS = system: SF-295 CNS
SK-MEL-28 melanoma = system: SK-MEL-28 melanoma
SN12C renal = system: SN12C renal
SK-OV-3 ovarian = system: SK-OV-3 ovarian
HCT-116 colon = system: HCT-116 colon
SF-539 CNS = system: SF-539 CNS
SK-MEL-2 melanoma = system: SK-MEL-2 melanoma
MALME-3M melanoma = system: MALME-3M melanoma
KM12 colon = system: KM12 colon
HCT-15 colon = system: HCT-15 colon
M14 melanoma = system: M14 melanoma
OVCAR-3 ovarian = system: OVCAR-3 ovarian
DU-145 prostate = system: DU-145 prostate
MCF7 breast = system: MCF7 breast
SK-MEL-5 melanoma = system: SK-MEL-5 melanoma
SNB-19 CNS = system: SNB-19 CNS
HCC-2998 colon = system: HCC-2998 colon
IGROV1 ovarian = system: IGROV1 ovarian
NCI-H522 lung = system: NCI-H522 lung
OVCAR-8 ovarian = system: OVCAR-8 ovarian
NCI-H23 lung = system: NCI-H23 lung
HOP-62 NSCLC = system: HOP-62 NSCLC
RXF 393 renal = system: RXF 393 renal
LOX IMVI melanoma = system: LOX IMVI melanoma
SW-620 colon = system: SW-620 colon
HL-60(TB) leukemia = system: HL-60(TB) leukemia
U251 CNS = system: U251 CNS

N#Cc1ccc(CSc2ncnc3nc[nH]c23)cc1
66.3 µM: TGI (SNB-75 CNS)
79.5 µM: TGI (HOP-92 NSCLC)
inactive: GI50 (EKVX NSCLC) 90.1 µM | GI50 (MOLT-4 leukemia) 92.8 µM | GI50 (RPMI-8226 leukemia) 54.9 µM | GI50 (SNB-75 CNS) 6.86 µM | GI50 (HS 578T breast) 72 µM | GI50 (ACHN renal) 38.4 µM | GI50 (CCRF-CEM leukemia) 95.1 µM | GI50 (T-47D breast) 80.7 µM | GI50 (HT29 colon) 77.3 µM | GI50 (COLO 205 colon) 52.2 µM | GI50 (TK-10 renal) 37.3 µM | GI50 (MDA-MB-231 breast) 94.4 µM | GI50 (NCI-H460 lung) 43 µM | GI50 (A549 NSCLC) 92.4 µM | GI50 (K-562 leukemia) 63.7 µM | GI50 (UACC-257 melanoma) 73.3 µM | GI50 (HOP-92 NSCLC) 15.8 µM | GI50 (UO-31 renal) 30.7 µM | GI50 (MDA-MB-435) 79 µM | GI50 (OVCAR-4 ovarian) 97.4 µM | GI50 (BT-549 breast) 95 µM | GI50 (A498 renal) 80 µM | GI50 (NCI/ADR-RES ovarian) 54.3 µM

Cn1cc(-c2nc(-c3c[nH]c4ccncc34)cs2)c2ccccc21
3.46 µM: TGI (TK-10 renal) | TGI (A549 NSCLC)
3.27 µM: TGI (SN12C renal)
2.61 µM: TGI (SNB-75 CNS)
2.85 µM: TGI (CAKI-1 renal)
2.81 µM: TGI (HCT-15 colon)
4.4 µM: TGI (HS 578T breast)
3.55 µM: TGI (UACC-257 melanoma)
3.14 µM: TGI (SK-MEL-28 melanoma)
2.96 µM: TGI (PC-3 prostate) | TGI (ACHN renal)
35.5 µM: TGI (BT-549 breast)
3.04 µM: TGI (HCT-116 colon) | TGI (MDA-MB-231 breast)
3.18 µM: TGI (OVCAR-5 ovarian)
3.11 µM: TGI (UACC-62 melanoma)
4.02 µM: TGI (NCI/ADR-RES ovarian)
2.35 µM: TGI (KM12 colon)
2.69 µM: TGI (UO-31 renal)
3.23 µM: TGI (SK-OV-3 ovarian) | TGI (MALME-3M melanoma)
3.36 µM: TGI (EKVX NSCLC)
3.3 µM: TGI (A498 renal)
3.43 µM: TGI (SF-268 CNS)
inactive: GI50 (EKVX NSCLC) 1.64 µM | GI50 (SF-268 CNS) 1.79 µM | GI50 (PC-3 prostate) 1.45 µM | GI50 (SNB-75 CNS) 1.29 µM | GI50 (HS 578T breast) 1.93 µM | GI50 (ACHN renal) 1.6 µM | GI50 (UACC-62 melanoma) 1.69 µM | GI50 (OVCAR-5 ovarian) 1.76 µM | GI50 (CAKI-1 renal) 1.48 µM | GI50 (SF-295 CNS) 1.77 µM | GI50 (SK-MEL-28 melanoma) 1.71 µM | GI50 (SN12C renal) 1.76 µM | GI50 (SK-OV-3 ovarian) 1.59 µM | GI50 (HCT-116 colon) 1.61 µM | GI50 (TK-10 renal) 1.97 µM | GI50 (SF-539 CNS) 1.78 µM | GI50 (SK-MEL-2 melanoma) 1.8 µM | GI50 (MDA-MB-231 breast) 1.56 µM | GI50 (MALME-3M melanoma) 1.69 µM | GI50 (KM12 colon) 1.11 µM | GI50 (A549 NSCLC) 1.83 µM | GI50 (HCT-15 colon) 1.37 µM | GI50 (M14 melanoma) 1.74 µM | GI50 (UACC-257 melanoma) 1.96 µM | GI50 (OVCAR-3 ovarian) 1.69 µM | GI50 (UO-31 renal) 1.38 µM | GI50 (MDA-MB-435) 1.79 µM | GI50 (DU-145 prostate) 1.74 µM | GI50 (BT-549 breast) 9 µM | GI50 (A498 renal) 1.86 µM | GI50 (NCI/ADR-RES ovarian) 1.99 µM
3.09 µM: TGI (OVCAR-3 ovarian)
3.4 µM: TGI (M14 melanoma)
3.51 µM: TGI (SK-MEL-2 melanoma)
3.26 µM: TGI (SF-539 CNS)
3.15 µM: TGI (DU-145 prostate)
3.32 µM: TGI (SF-295 CNS) | TGI (MDA-MB-435)

COc1ccc(N2CN(C)CSC2=S)cc1
66.8 µM: TGI (SK-OV-3 ovarian)
> 100 µM: TGI (EKVX NSCLC) | TGI (MCF7 breast) | TGI (SF-268 CNS) | TGI (SK-MEL-5 melanoma) | TGI (SNB-19 CNS) | TGI (PC-3 prostate) | TGI (MOLT-4 leukemia) | TGI (RPMI-8226 leukemia) | TGI (SNB-75 CNS) | TGI (HS 578T breast) | TGI (ACHN renal) | TGI (HCC-2998 colon) | TGI (UACC-62 melanoma) | TGI (OVCAR-5 ovarian) | TGI (CAKI-1 renal) | TGI (T-47D breast) | TGI (IGROV1 ovarian) | TGI (SK-MEL-28 melanoma) | TGI (SN12C renal) | TGI (HT29 colon) | TGI (HCT-116 colon) | TGI (COLO 205 colon) | TGI (TK-10 renal) | TGI (SF-539 CNS) | TGI (NCI-H522 lung) | TGI (OVCAR-8 ovarian) | TGI (SK-MEL-2 melanoma) | TGI (MDA-MB-231 breast) | TGI (NCI-H23 lung) | TGI (MALME-3M melanoma) | TGI (KM12 colon) | TGI (NCI-H460 lung) | TGI (A549 NSCLC) | TGI (HCT-15 colon) | TGI (K-562 leukemia) | TGI (RXF 393 renal) | TGI (LOX IMVI melanoma) | TGI (SW-620 colon) | TGI (M14 melanoma) | TGI (UACC-257 melanoma) | TGI (UO-31 renal) | TGI (MDA-MB-435) | TGI (DU-145 prostate) | TGI (HL-60(TB) leukemia) | TGI (OVCAR-4 ovarian) | TGI (BT-549 breast) | TGI (U251 CNS) | TGI (A498 renal) | TGI (NCI/ADR-RES ovarian)
24.4 µM: TGI (OVCAR-3 ovarian)
86.2 µM: TGI (SF-295 CNS)
87.2 µM: TGI (CCRF-CEM leukemia)
61.5 µM: TGI (HOP-62 NSCLC)
